Test results taken from PubChem BioAssay (NCI).
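Protocol summary: plate cells (96-well), add compound at 5 concentrations, incubate 48 h, interpolate endpoints linearly. Definition used: TGI = concentration required for complete inhibition of growth.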 Where a SMILES comes first, the peptide text is derived from it. [ ]: non-standard residue; d: D form. The star is where a group is joined. NMeAc5c = CNC1(C(=O)O)CCCC1; Boc = CC(C)(C)OC(=O)*; OBn = c1ccc(CO*)cc1

Assays:
Experiment in all cases: NCI-60 cell line screen, 48 h
786-0 renal = system: 786-0 renal
DU-145 prostate = system: DU-145 prostate
EKVX NSCLC = system: EKVX NSCLC
HOP-92 NSCLC = system: HOP-92 NSCLC
MCF7 breast = system: MCF7 breast
MDA-MB-231 breast = system: MDA-MB-231 breast
OVCAR-4 ovarian = system: OVCAR-4 ovarian
RXF 393 renal = system: RXF 393 renal
SF-295 CNS = system: SF-295 CNS
UACC-62 melanoma = system: UACC-62 melanoma

Row | SMILES | TGI (786-0 renal) [µM] | TGI (DU-145 prostate) [µM] | TGI (EKVX NSCLC) [µM] | TGI (HOP-92 NSCLC) [µM] | TGI (MCF7 breast) [µM] | TGI (MDA-MB-231 breast) [µM] | TGI (OVCAR-4 ovarian) [µM] | TGI (RXF 393 renal) [µM] | TGI (SF-295 CNS) [µM] | TGI (UACC-62 melanoma) [µM]
1 | NC(N)=N/N=C/c1c(-c2ccc(N)cc2)nc2sccn12 | 62 | 35.5 | 61.1 | > 100 | > 100 | 48.4 | > 100 | 39.9 | 55.6 | > 100
2 | Nc1nc(Cl)cc(NCC2(CO)CC(=O)C2)n1 | > 100 | > 100 | > 100 | > 100 | > 100 | > 100 | > 100 | > 100 | > 100 | > 100
3 | CC1(C)OC(=O)N(c2ccccc2)C12C=Cc1cc([N+](=O)[O-])cc([N+](=O)[O-])c1O2 (stereo not given) | > 100 | > 100 | > 100 | > 100 | > 100 | > 100 | > 100 | > 100 | > 100 | > 100
4 | Cc1ccccc1C(=O)N1CCc2c([nH]c3ccccc23)C1 | 54.4 | 84.5 | 75 | 44.4 | 51.8 | 34.1 | 74.9 | 43.1 | > 100 | 31.6
5 | COc1ccc(-c2cc(O)c3nc4ccccc4n3c2)cc1 | > 100 | > 100 | > 100 | > 100 | > 100 | > 100 | > 100 | > 100 | > 100 | > 100
6 | CC[C@@H]1CC[C@@H]2[C@H](CC[C@]3(C)[C@@H](OC(C)=O)CC[C@@H]23)[C@H]1COC(C)=O | > 100 | > 100 | 73.6 | 69.8 | > 100 | 56.6 | 75 | 45.9 | 65.1 | 88
7 | O=C1CCCSC(=O)N1Cc1ccccc1 | > 100 | > 100 | > 100 | > 100 | > 100 | > 100 | > 100 | > 100 | > 100 | > 100
8 | Cc1cn2c(/C=N/N=C(N)N)c(-c3cccc([N+](=O)[O-])c3)nc2s1 | 7.08 | 3.27 | 5.39 | 3.35 | 2.12 | 2.71 | 1.07 | 2.5 | 3.3 | 3.07
9 | CCCN(C(=O)c1ccccc1)C(C#N)c1ccc(C(C#N)N(CCC)C(=O)c2ccccc2)cc1 (stereo not given) | > 100 | > 100 | > 100 | 64.4 | > 100 | > 100 | 66.7 | > 100 | > 100 | > 100
10 | CCCCCCc1cc2cc(-c3csc(CC#N)n3)c(=O)oc2cc1O | > 64.2 | > 100 | > 100 | 69 | > 100 | 55.2 | 12.9 | > 89.2 | > 100 | > 100
11 | COc1ccc(COCCOCc2nc(C#N)c(N)o2)cc1 | > 100 | > 100 | > 100 | > 100 | > 100 | > 100 | > 100 | > 100 | > 100 | > 100
12 | O=C(N/N=C(/COc1ccc(Cl)cc1)N=Cc1ccncc1)c1ccncc1 | > 100 | > 100 | > 100 | > 100 | > 100 | > 100 | > 100 | > 100 | > 100 | > 100
13 | Cc1ccc(N=NC(=Nc2ccccc2)c2ccc(N(CCC#N)CCC#N)cc2)cc1 | > 100 | > 100 | > 100 | 64.8 | 79.2 | 55.8 | > 100 | 80.1 | 92.4 | 58.9
14 | COC(=O)c1c(C)cccc1C1CN=NC12Cc1ccc(C)cc1C2=O (stereo not given) | > 100 | > 100 | > 100 | > 100 | > 100 | > 100 | > 100 | > 100 | > 100 | 78.5
15 | C1CN(c2nc3c(nnc4nc(N5CCOCC5)sc43)s2)CCO1 | > 100 | > 100 | > 100 | > 100 | > 100 | > 100 | > 100 | > 100 | > 100 | > 100
16 | CN(C)C(=O)O/N=C1/C(c2c(O)[nH]c3ccccc23)=Nc2ccccc21 | 21.8 | > 100 | 33.5 | 33 | > 100 | 65 | 33.1 | 14.1 | 68.8 | 98.6
17 | CCCCCCCCCCCCCCNC(=O)CCC(NC(=O)c1ccc(N(C)Cc2cnc3nc(N)nc(N)c3n2)cc1)C(=O)NCCCCCCCCCCCCCC (stereo not given) | 52.1 | > 100 | > 100 | 63.8 | 29.2 | > 44.8 | 40.9 | 34.2 | 28.9 | 22.2
18 | COC(=O)C([C@H](NC1(c2ccccc2)c2ccccc2-c2ccccc21)C(=O)OC)N(NC(=O)OCc1ccccc1)C(=O)OCc1ccccc1 (mixture of isomers) | > 100 | > 100 | > 100 | > 100 | > 100 | > 100 | > 100 | > 100 | > 100 | > 100
19 | C=CC1(C)CCC2C(=CCC3C2(C)CC(O)C(O)C3(C)COC2OC(C(=O)O)C(O)C(O)C2O)C1 (stereo not given) (tested in a mixture with another compound) | > 100 | > 100 | > 100 | > 100 | > 100 | > 100 | > 100 | > 100 | > 100 | > 100
20 | C[C@@H](NC(=O)[C@@H]1C[C@]1(C)COC(=O)c1cc([N+](=O)[O-])cc([N+](=O)[O-])c1)c1cccc2ccccc12 | > 100 | > 100 | > 100 | > 100 | > 100 | > 100 | > 100 | > 100 | > 100 | > 100
21 | NC(=O)NCCCC(NC(=O)OCCCCn1ccc(=O)[nH]c1=O)C(=O)O (stereo not given) | > 100 | > 100 | > 100 | > 100 | > 100 | > 100 | > 100 | > 100 | > 100 | > 100
22 | COc1ccc2cc(NC(=O)N/N=C\c3ccc([N+](=O)[O-])cc3)ccc2c1 | > 100 | > 100 | > 100 | > 100 | > 100 | > 100 | 5.74 | 45.1 | > 100 | > 100
23 | C=C1C(=O)O[C@@H]2C(=O)[C@@H](C)CCC/C(C)=C/CC[C@@]3(C)O[C@@H]3C[C@@H]12 | 43.9 | > 100 | > 100 | 31.2 | > 100 | > 100 | > 100 | 17.1 | > 100 | > 100
24 | CC(=O)O[C@@H]1[C@H](C(C)C)[C@@H](OC(C)=O)C/C(C)=C/CC[C@]2(C)O[C@@H]12 | > 100 | > 100 | > 100 | > 100 | > 100 | > 100 | > 100 | > 100 | > 100 | > 100
25 | CN(C(=O)C(Cc1ccccc1)NC(=O)OC(C)(C)C)C1(C(=O)NC(Cc2ccccc2)C(=O)OCc2ccccc2)CCCC1 (stereo not drawn) (Boc-Phe-[NMeAc5c]-Phe-OBn; configuration not given here) | > 100 | > 100 | > 100 | > 100 | > 100 | 87 | > 100 | > 100 | > 100 | 71.2
26 | C=CCN1C[C@H](C)N([C@H](c2ccc(C(=O)NC(CC)CC)cc2)c2cccc(OC)c2)C[C@H]1C | > 100 | > 100 | > 100 | > 100 | > 100 | 75.6 | > 100 | > 100 | > 100 | 51.1
27 | CC(C)(C)OC(=O)NCCCCC1NC(=O)[C@@H]2Cc3c([nH]c4ccccc34)C(C3CCCCC3)N2C1=O (stereo not given in full) | > 100 | > 100 | > 100 | > 100 | > 100 | > 100 | > 100 | 25.6 | 63 | > 100
28 | COc1cc2nc3n(c(=O)c2cc1OC)-c1ccc([N+](=O)[O-])cc1C3=O | > 100 | > 100 | > 100 | > 100 | 32 | > 100 | 63.9 | 79.7 | > 100 | > 100
